Laboratory results: patent US12678443B2, “Medicament for preventing and/or treating dry eye” (Santen Pharmaceutical Co., Ltd., priority 2021, dated 2026)

Assays:
[1] = test system: normal male cynomolgus monkeys; assay: Tear film break-up time (TBUT) after single ocular instillation (Tests 1 and 2); assay type: in vivo, cynomolgus monkey; conditions: for extension of TBUT: single ocular instillation 1% (w/v) ophthalmic solution, FIG. 2
[2] = cited from earlier work; for secretion of tears and tear proteins: Patent Literature 1
[3] = test system: dry-eye model SD (Sprague-Dawley) rat; assay: Quantity of tears by Schirmer strip in the exorbital-lacrimal-gland-removed dry-eye model (Tests 3 and 4); assay type: in vivo; conditions: for Incremental difference in Schirmer's test at 0.5 hours after ocular instillation / Incremental difference in Schirmer's test at 8 hours after ocular instillation: difference from vehicle-instilled group, rat dry-eye model
Method: A somnopentyl injection five-fold diluted with physiological saline was intraperitoneally administered to a normal male SD (Sprague-Dawley) rat by 2.5 mL/kg, and the rat was given general anesthesia, followed by keeping the anesthetized state by inhalation of about 1 to 3% isoflurane. Then, the skin on each cheek was incised to remove the exorbital lacrimal gland, followed by suturation with a Michel suture clamp. In this test, an individual wherein reduction of tears was confirmed after 13 weeks from the removal of exorbital lacrimal gland was included as the experimental animal.
Half an hour after treatment of general anesthesia, Schirmer strip (1 mm×17 mm) was inserted to conjunctival sac of the lower eyelid of a rat, and then after 1 minute of the insertion, the wet part of the Schirmer strip was measured in increments of 0.5 mm. (N=14 or 16 eyes)
The quantity of tears was measured in a similar manner to Test 3. (N=10 eyes)

[4] = target: β1 adrenergic receptors (Homo sapiens, UniProt P08588); conditions: cited from earlier work
β1 adrenergic receptors, sequence (P08588 whole entry): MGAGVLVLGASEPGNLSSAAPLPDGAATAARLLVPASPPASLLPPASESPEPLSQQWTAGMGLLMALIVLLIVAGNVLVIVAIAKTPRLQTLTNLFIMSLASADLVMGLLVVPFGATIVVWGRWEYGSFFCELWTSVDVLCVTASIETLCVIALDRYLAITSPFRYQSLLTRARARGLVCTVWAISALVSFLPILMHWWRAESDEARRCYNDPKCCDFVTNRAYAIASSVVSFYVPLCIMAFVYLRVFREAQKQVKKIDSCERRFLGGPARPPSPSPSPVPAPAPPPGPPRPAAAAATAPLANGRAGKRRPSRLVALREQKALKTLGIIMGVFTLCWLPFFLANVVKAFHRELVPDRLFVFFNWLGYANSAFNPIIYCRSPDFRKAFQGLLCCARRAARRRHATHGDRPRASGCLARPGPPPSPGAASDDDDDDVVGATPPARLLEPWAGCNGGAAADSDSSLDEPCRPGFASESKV

[5] = test system: normal male cynomolgus monkeys; assay: Intraocular pressure test, twice daily repeated instillation (Test 5); assay type: in vivo, cynomolgus monkey; conditions: 0.01% and 0.1% ophthalmic solutions, twice daily repeatedly, Day 1, 7, 14; FIG. 4
Method: Specifically, one drop of 0.4% oxybuprocaine hydrochloride ophthalmic solution (trade name: Benoxil (registered trademark) ophthalmic solution 0.4%) was instilled to the right eye so as to provide surface anesthesia, and then the intraocular pressure was measured three times with Mentor tonometer (applanation), followed by calculation of the average. (N=6 eyes)

[6] = 0.001% ophthalmic solution, 8 hours
[7] = 0.01% ophthalmic solution, 8 hours
[8] = 0.1% ophthalmic solution, 8 hours
[9] = 1% ophthalmic solution, 8 hours

SMILES	extension of TBUT [1]	secretion of tears and tear proteins [2]	Incremental difference in Schirmer's test at 0.5 hours after ocular instillation ([3]; 0.001% ophthalmic solution) [mm/min]	Incremental difference in Schirmer's test at 8 hours after ocular instillation [3, 6] [mm/min]	Incremental difference in Schirmer's test at 0.5 hours after ocular instillation ([3]; 0.01% ophthalmic solution) [mm/min]	Incremental difference in Schirmer's test at 8 hours after ocular instillation [3, 7] [mm/min]	Incremental difference in Schirmer's test at 0.5 hours after ocular instillation ([3]; 0.1% ophthalmic solution) [mm/min]	Incremental difference in Schirmer's test at 8 hours after ocular instillation [3, 8] [mm/min]	Incremental difference in Schirmer's test at 0.5 hours after ocular instillation ([3]; 1% ophthalmic solution) [mm/min]	Incremental difference in Schirmer's test at 8 hours after ocular instillation [3, 9] [mm/min]	also measured
CC(C)(C)NCC(O)c1cc(Cl)c(N)c(Cl)c1 (stereo not shown) [clenbuterol]	not confirmed	confirmed to enhance	2.0	0.3	2.7	1.1	3.6	2.4	3.0	3.9	
CC(Cc1ccc(O)cc1)NCC(O)c1cc(O)cc(O)c1 (stereo not shown) [fenoterol]	not confirmed	confirmed to enhance	1.8	0.0	4.8	0.2	6.1	0.9	3.6	1.1	
COc1ccc(CC(C)(C)NC[C@H](O)c2cc(O)cc3c2OCC(=O)N3)cc1 [olodaterol, 6-hydroxy-8-((1R)-1-hydroxy-2-{[2-(4-methoxyphenyl)-1,1-dimethylethyl]amino}-ethyl)-2H-1,4-benzoxazin-3-(4H)-one]			7.2	2.1	6.9	2.8					effect of stabilizing tear film ([1]; low concentration of 0.0001%, FIG. 1): confirmed to show the effect of stabilizing tear film; TBUT-extending effect ([1]; single ocular instillation 0.0001, 0.001, 0.01% (w/v), 20 μL/eye, 15, 30, 60 minutes, FIG. 1): confirmed in a concentration-dependent manner; intrinsic activity against β1 adrenergic receptors [4]: weak intrinsic activity; Incremental difference in Schirmer's test at 0.5 hours after ocular instillation ([3]; 0.00001% ophthalmic solution): 2.8 mm/min; Incremental difference in Schirmer's test at 8 hours after ocular instillation ([3]; 0.00001% ophthalmic solution, 8 hours): 0.4 mm/min; Incremental difference in Schirmer's test at 0.5 hours after ocular instillation ([3]; 0.0001% ophthalmic solution): 6.0 mm/min; Incremental difference in Schirmer's test at 8 hours after ocular instillation ([3]; 0.0001% ophthalmic solution, 8 hours): 1.7 mm/min; lacrimal secretion at 8 hours after ocular instillation ([3]; 0.0001 to 0.01% instilled groups, 8 hours, FIG. 3): highly enhanced; increase of tear volumes at 16 hours after ocular instillation ([3]; 0.001 and 0.01% instilled groups, 16 hours, FIG. 3): increase of tear volumes was observed; lacrimal secretion ([3]; olodaterol-instilled groups 0.00001 to 0.01%, FIG. 3): enhanced; intraocular pressure [5]: did not show increase and/or decrease
CC(C)(C)NCC(O)c1ccc(O)c(CO)c1 (stereo not shown) [salbutamol]											lacrimal secretion ([2]; Patent Literature 2): confirmed to enhance lacrimal secretion; effects on the treatment of dry eye ([2]; Patent Literature 3): did not have sufficient effects
